Converted amounts (≈) assume the structure as drawn.
How the values were obtained:
[1] = test system: Mycobacterium tuberculosis; test: Antitubercular activity against Mycobacterium tuberculosis H37Rv; type: functional
[2] = (§1) Cytotoxicity against African green monkey Vero cells assessed as reduction in cell viability after 72 hrs by MTT assay; type: cell-based; conditions: chlorocebus sabaeus, Vero cells
[3] = Selectivity index, ratio of CC50 for African green monkey Vero cells to MIC for Mycobacterium tuberculosis H37Rv; type: toxicity; conditions: read-out: Selectivity Index
[4] = test system: Staphylococcus epidermidis; test: Antibacterial activity against methicillin-sensitive Staphylococcus epidermidis; type: functional
[5] = test system: Staphylococcus epidermidis; test: Antibacterial activity against methicillin-resistant Staphylococcus epidermidis; type: functional
[6] = test system: Staphylococcus aureus; test: Antibacterial activity against methicillin-sensitive Staphylococcus aureus; type: functional
[7] = test system: Staphylococcus aureus; test: Antibacterial activity against methicillin-resistant Staphylococcus aureus; type: functional
[8] = test system: Enterococcus faecalis; test: Antibacterial activity against Enterococcus faecalis; type: functional
[9] = test system: Enterococcus faecium; test: Antibacterial activity against Enterococcus faecium; type: functional
[10] = test system: Escherichia coli; test: Antibacterial activity against Escherichia coli; type: functional
[11] = test system: Klebsiella pneumoniae; test: Antibacterial activity against Klebsiella pneumoniae; type: functional
[12] = test system: Pseudomonas aeruginosa; test: Antibacterial activity against Pseudomonas aeruginosa ATCC 27853; type: functional
[13] = test system: Acinetobacter calcoaceticus; test: Antibacterial activity against Acinetobacter calcoaceticus; type: functional
[14] = test system: Enterobacter cloacae; test: Antibacterial activity against Enterobacter cloacae; type: functional
[15] = test system: Klebsiella aerogenes; test: Antibacterial activity against Enterobacter aerogenes; type: functional
[16] = test system: Proteus mirabilis; test: Antibacterial activity against Proteus mirabilis; type: functional
[17] = test system: Citrobacter freundii; test: Antibacterial activity against Citrobacter freundii; type: functional
[18] = test system: Vero; test: as §1; type: cell-based; conditions: chlorocebus sabaeus, vero, 72 h
[19] = Cmax in ICR mouse at 25 mg/kg, po; type: ADME, organism-based; set-up: dose 25 mg/kg, route oral; conditions: in vivo
[20] = Half life in ICR mouse at 25 mg/kg, po; type: ADME, organism-based; conditions: in vivo
[21] = Tmax in ICR mouse at 25 mg/kg, po; type: ADME, organism-based; conditions: in vivo
[22] = AUC (0 to infinity) in ICR mouse at 25 mg/kg, po; type: ADME, organism-based; set-up: dose 25 mg/kg, time infinity, route oral; conditions: in vivo
[23] = Metabolic stability in mouse assessed as half life; type: ADME

SMILES | MIC [1] [mg/L] | CC50 at 72 h [2] [mg/L] | selectivity ratio [3] | MIC90 [4] [mg/L] | MIC90 [5] [mg/L] | MIC90 [6] [mg/L] | MIC90 [7] [mg/L] | MIC90 [8] [mg/L] | MIC90 [9] [mg/L] | MIC90 [10] [mg/L] | MIC90 [11] [mg/L] | MIC90 [12] [mg/L] | MIC90 [13] [mg/L] | MIC90 [14] [mg/L] | MIC90 [15] [mg/L] | MIC90 [16] [mg/L] | MIC90 [17] [mg/L] | Cmax [19] [µg/mL] | Tmax [21] [h] | AUC(0-inf) [22] [µg·h/mL] | further results
CCOC(=O)c1c(-c2ccc(OC)cc2)oc2ccc(OCCCCN3C(=O)/C(=N\OC)c4cc(F)ccc43)cc12 | 0.031 (≈ 0.0553 µM) | 32 (≈ 57.1 µM) | 1030 | 0.5 (≈ 0.892 µM) | 2 (≈ 3.57 µM) | 1 (≈ 1.78 µM) | 4 (≈ 7.14 µM) | 2 (≈ 3.57 µM) | 16 (≈ 28.5 µM) | 0.25 (≈ 0.446 µM) | 2 (≈ 3.57 µM) | 8 (≈ 14.3 µM) | 4 (≈ 7.14 µM) | 0.5 (≈ 0.892 µM) | 0.5 (≈ 0.892 µM) | 0.25 (≈ 0.446 µM) | 0.25 (≈ 0.446 µM) | – | – | – | –
CCOC(=O)c1c(-c2ccc(OC)cc2)oc2ccc(OCCCCCCN3C(=O)C(=O)c4ccccc43)cc12 | 0.062 (≈ 0.114 µM) | 256 (≈ 473 µM) | 4130 | 0.25 (≈ 0.462 µM) | 4 (≈ 7.39 µM) | 1 (≈ 1.85 µM) | 1 (≈ 1.85 µM) | 2 (≈ 3.69 µM) | 8 (≈ 14.8 µM) | 0.06 (≈ 0.111 µM) | 0.5 (≈ 0.923 µM) | 4 (≈ 7.39 µM) | 2 (≈ 3.69 µM) | 0.125 (≈ 0.231 µM) | 0.5 (≈ 0.923 µM) | 0.125 (≈ 0.231 µM) | 0.25 (≈ 0.462 µM) | – | – | – | –
CCOC(=O)c1c(-c2ccc(OC)cc2)oc2ccc(OCCCCCCN3C(=O)C(=O)c4cc(F)ccc43)cc12 | < 0.016 | 1020 (≈ 1830 µM) | > 64000 | 1 (≈ 1.79 µM) | 8 (≈ 14.3 µM) | 2 (≈ 3.57 µM) | 2 (≈ 3.57 µM) | 2 (≈ 3.57 µM) | 16 (≈ 28.6 µM) | 0.125 (≈ 0.223 µM) | 1 (≈ 1.79 µM) | 4 (≈ 7.15 µM) | 4 (≈ 7.15 µM) | 0.5 (≈ 0.894 µM) | 0.25 (≈ 0.447 µM) | 0.125 (≈ 0.223 µM) | 1 (≈ 1.79 µM) | – | – | – | –
CCOC(=O)c1c(-c2ccccc2)oc2ccc(OCCCCN3C(=O)/C(=N\OC)c4cc(F)ccc43)cc12 | 0.062 (≈ 0.117 µM) | – | 516 | 0.25 (≈ 0.471 µM) | 1 (≈ 1.88 µM) | 1 (≈ 1.88 µM) | 2 (≈ 3.77 µM) | 2 (≈ 3.77 µM) | 8 (≈ 15.1 µM) | 0.125 (≈ 0.236 µM) | 0.25 (≈ 0.471 µM) | 0.5 (≈ 0.942 µM) | 1 (≈ 1.88 µM) | 1 (≈ 1.88 µM) | 0.125 (≈ 0.236 µM) | 0.25 (≈ 0.471 µM) | 0.25 (≈ 0.471 µM) | – | – | – | CC50 [18]: 64 mg/L (≈ 121 µM)
CCOC(=O)c1c(-c2ccc(OC)cc2)oc2ccc(OCCCCN3C(=O)/C(=N\OC)c4ccccc43)cc12 | < 0.016 | 32 (≈ 59 µM) | > 2000 | 0.125 (≈ 0.23 µM) | 0.5 (≈ 0.922 µM) | 1 (≈ 1.84 µM) | 1 (≈ 1.84 µM) | 1 (≈ 1.84 µM) | 8 (≈ 14.7 µM) | 0.5 (≈ 0.922 µM) | 0.25 (≈ 0.461 µM) | 4 (≈ 7.37 µM) | 1 (≈ 1.84 µM) | 0.25 (≈ 0.461 µM) | 0.06 (≈ 0.111 µM) | 0.125 (≈ 0.23 µM) | 0.25 (≈ 0.461 µM) | 0.927 | 1.65 | 3.02 | half-life [20]: 3.33 h; half-life [23]: 0.32 h
O=C(O)c1cn(C2CC2)c2cc(N3CCNCC3)c(F)cc2c1=O [CIPROFLOXACIN] | 0.291 (≈ 0.878 µM) | 512 (≈ 1550 µM) | – | 0.125 (≈ 0.377 µM) | 4 (≈ 12.1 µM) | 0.25 (≈ 0.754 µM) | 0.25 (≈ 0.754 µM) | 0.5 (≈ 1.51 µM) | 8 (≈ 24.1 µM) | 0.06 (≈ 0.181 µM) | 0.5 (≈ 1.51 µM) | 0.25 (≈ 0.754 µM) | 0.5 (≈ 1.51 µM) | – | 0.06 (≈ 0.181 µM) | ≤ 0.03 | 0.03 (≈ 0.0905 µM) | 3.13 | 1.8 | 17.8 | –
